Data taken from patent US4927826A, “Cycloproylpropenamides useful as platelet activing factor (PAF) antagonists” (Hoffman-La Roche Inc., priority 1988, dated 1990).

How the values were obtained:
dog platelets = experiment: Binding assay: inhibition of 3H-PAF binding to dog platelets; details: 10 minutes at room temperature
Description: The binding assay was done in 400 μl polyethylene microcentrifuge tubes (Beckman) containing 50 μl of an oil mixture of 2 parts Siliconol AR200 (Serva): 1 part Silicone Fluid (Arthur H. Thomas). Buffer, standards, or analogs (150 μl total volume) were added to the tubes. Radiolabelled ^3 H-PAF (50 μl) was then added to the tubes. The reaction was started by the addition of 50 μl of dog platelets (2×10^7 platelets). The tubes were capped, inverted several times to mix, and incubated for 10 minutes at room temperature. The platelets were separated from the incubation mixture by centrifuging 1 minute in a Beckman Microfuge B centrifuge. The tip of the microfuge tube was cut off, and the platelets were washed out of the tip with 200 μl of 50% methanol (Burdick and Jackson). Aquasol (NEN, 10 ml) was added and the radioactivity in the samples was determined using an LS 8100 Beckman liquid scintillation counter linked to a Techtran tape recorder. Data was processed through an in-house computer system. Alternatively, radioactivity was determined using a Searle Mark III liquid scintillation counter linked to a Iso-Data microprocessor.
(b) Preparation of Platelets
Blood was collected from anesthesized or unanesthesized dogs into 50 ml plastic centrifuge tubes containing 3.8% sodium citrate as the anticoagulant (1 volume of citrate/9 volumes of blood). The red cells were removed by centrifugation for 15 minutes at 600 rpm (100-125 g) at room temperature. An aliquot of the supernatant platelet rich plasma (PRP) was saved for cell counting and the remainder was acidified by pH 6.5 with 0.15M citric acid. The platelet pellet was obtained after a 10 minute centrifugation at 2000 rpm (1000 g) at room temperature. Washed platelets were prepared by resuspending the platelet pellet once with PBS containing 1 mM EDTA, centrifuging as noted, and then resuspending the platelets in 0.1% BSA-PBS. An aliquot of the washed platelets was counted. Platelets used for binding assays were diluted to 2×10^7 platelets/assay tube (4×10^8 platelets/ml). Platelet counting was done using a Royco Cell-Crit 921.

[1] = system: PAF-induced Bronchoconstriction; experiment: PAF Induced Bronchoconstriction Assay; assay type: in vivo; details: guinea pig, ± standard error of the mean; for Percent Inhib. of PAF-induced Bronchoconstriction, 1 mg/Kg i.v.: 1 minute pretreatment, PAF 1.0 μg/kg i.v.; for Percent Inhib. of PAF-induced Bronchoconstriction, 50 mg/Kg p.o.: 2-hour pretreatment, PAF i.v.
Description: PAF Induced Bronchoconstriction Assay
Male animals (Hartlet Strain, 400-500 g) were anesthetized with urethane (2 g/kg, i.p.). Each animals' trachea was cannulated and the guinea pigs were respirated using a Harvard small animal rodent respirator (3.0 cc stroke volume, 40 breaths per min.). Tracheal pressure was recorded from a cannula inserted in the trachea and connected to a Statham Pressure Transducer.
The jugular vein was cannulated for administering compounds. Spontaneous breathing was arrested with succinylcholine (1.2 mg/kg, i.v.) administered 2 minutes prior to intravenous injection of platelet activating factor (PAF).
For, the intravenous testing, the guinea pig is given a 5-minute pretreatment with propranolol at a dose of 0.1 mg/kg intravenously. The test compound is administered with a 1 minute pretreatment prior to intravenous challenge with PAF. The animal is then challenged with a 1.0 μg/kg intravenous dose of PAF and the change is tracheal pressure is measured.
For the oral testing, the procedure includes a 2-hour pretreatment period with the test compound administered through an oral gavage tube. Propranolol or succinylcholine and PAF are administered intravenously, and the change in tracheal pressure measured.
The change is tracheal pressure is determined by subtracting the steady state baseline achieved after administration of succinylcholine from the peak bronchoconstriction seen after challenge with PAF. The mean is calculated for each test compound and compared to the mean of the control animals to give the percent inhibition of bronchoconstriction. The standard error is calculated as the standard error of the mean.

[2] = system: PAF-induced Platelet Count Decrease; experiment: PAF induced platelet count decrease; assay type: in vivo, guinea pig; details: for Percent Inhib. of PAF-induced Platelet Count Decrease, 3 mg/Kg i.v.: guinea pig, 15 minutes after drug injection, PAF 75 ng/kg i.v.
Description: PAF INDUCED PLATELET COUNT DECREASE
Male Hartley guinea pigs weighing between 500 and 900 grams were fed standard guinea pig chow and tap water ad libitum. PAF was solubilized in ethanol and stored as a 2 mM stock solution at -70° C. The stock solution of PAF was diluted to 1 pM in Tris buffer pH 7.4 and 0.1% BSA for all experiments.
(a) Intravenous Procedure
Guinea pigs were anesthetized with urethane (1.6 g/kg, i.p.). A catheter (PE50) was introduced into the right carotid artery for withdrawing blood. A second catheter PE10) was introduced into the jugular vein for injecting drugs and for administering the PAF challenge (75 ng/kg, i.v.). A control blood sample was obtained and platelets were counted in a whole blood platelet analyzer. PAF was then given and blood samples were taken 15, 30, and 60 seconds after the challenge for platelet counts. Fifteen minutes later, selected concentrations of the test compound were solubilized in DMSO and injected intravenously into a group of 4-6 animals. Only one concentration of antagonist was used in each animal group. Fifteen minutes after drug injection, blood samples were taken before and 15, 30, and 60 sec after the PAF challenge, and analyzed for platelet number.
Animals were anesthetized with sodium pentobarbital (35 mg/kg, i.p.) and the caritoid artery and jugular vein were cannulated as described above. The cannulae were exteriorized at the base of the neck and the animals were allowed to recover. At least 18 hours after surgery, conscious unrestrained guinea pigs were used in the experiment. The animals were challenged two time with PAF (120 ng/kg, i.v.); the first to establish a consistent response to PAF and the second to serve as a control for the PAF challenge. Blood samples were taken before and 15, 30, and 45 seconds after PAF challenge and platelets were counted. Thirty minutes after the control PAF challenge, the animal were orally dosed with either gum acacia or the test compound. Animals were then challenged with PAF at 1, 3, 5, and 24 hours after the administration of the drug.
DATA ANALYSIS AND STATISTICS
The % change, i.e., the difference in platelet number before and after PAF challenge was calculated by: [formula]
Statistical significance (p 0.05) of the difference between the mean PAF control and mean drug treated activity was determined with paried Student's t-test.

## O=C(/C=C/C1CC1(c1cccc(F)c1)c1cccc(F)c1)NCCCCc1cccnc1 (racemic) [[R,S-(E)]-3-[2,2-bis(3-Fluorophenyl)cyclopropyl]-N-[4-(3-pyridinyl)butyl]-2-propenamide]
Dog platelets
  IC50: 53 nM
[1]
  Percent Inhib. of PAF-induced Bronchoconstriction, 1 mg/Kg i.v.: 96 ± 2%
[2]
  Percent Inhib. of PAF-induced Platelet Count Decrease, 3 mg/Kg i.v.: 30%

## O=C(/C=C/[C@@H]1CC1(c1ccccc1)c1ccccc1)NCCCCc1cccnc1 [[S-(E)]-3-(2,2-Diphenylcyclopropyl)-N-[4-(3-pyridinyl)butyl]-2-propenamide]
Dog platelets
  IC50: 35 nM
[1]
  Percent Inhib. of PAF-induced Bronchoconstriction, 1 mg/Kg i.v.: 86 ± 7%
[2]
  Percent Inhib. of PAF-induced Platelet Count Decrease, 3 mg/Kg i.v.: 44%

## O=C(/C=C\C1CC1(c1cccc(F)c1)c1cccc(F)c1)NCCCCc1cccnc1 (racemic) [[R,S-(Z)]-3-[2,2-bis(3-Fluorophenyl)cyclopropyl]-N-[4-(3-pyridinyl)butyl]-2-propenamide]
Dog platelets
  IC50: 100 nM
[1]
  Percent Inhib. of PAF-induced Bronchoconstriction, 50 mg/Kg p.o.: 52 ± 28%
[2]
  Percent Inhib. of PAF-induced Platelet Count Decrease, 3 mg/Kg i.v.: 22%

## O=C(/C=C/[C@@H]1CC1(c1cccc(F)c1)c1cccc(F)c1)NCCCCc1cccnc1 [[S-(E)]-3-[2,2-bis(3-Fluorophenyl)cyclopropyl]-N-[4-(3-pyridinyl)butyl]-2-propenamide]
Dog platelets
  IC50: 24 nM
[1]
  Percent Inhib. of PAF-induced Bronchoconstriction, 1 mg/Kg i.v.: 90 ± 4%
  Percent Inhib. of PAF-induced Bronchoconstriction, 50 mg/Kg p.o.: 95 ± 79%
[2]; conscious guinea pig, 30 mg/Kg p.o., PAF 120 ng/kg i.v.
  Percent Inhib. of PAF-induced Platelet Count Decrease, 30 mg/Kg p.o.: 66%

## O=C(/C=C/[C@H]1CC1(c1ccccc1)c1ccccc1)NCCCCc1cccnc1 [[R-(E)]-3-(2,2-Diphenylcyclopropyl)-N-[4-(3-pyridinyl)butyl]-2-propenamide]
Dog platelets
  IC50: 250 nM
[1]
  Percent Inhib. of PAF-induced Bronchoconstriction, 1 mg/Kg i.v.: 71 ± 12%
  Percent Inhib. of PAF-induced Bronchoconstriction, 50 mg/Kg p.o.: 57 ± 19%

## O=C(/C=C/C1CC1(c1ccc(F)cc1)c1ccc(F)cc1)NCCCCc1cccnc1 (racemic) [[R,S-(E)]-3-[2,2-bis(4-Fluorophenyl)cyclopropyl]-N-[4-(3-pyridinyl)butyl]-2-propenamide]
Dog platelets
  IC50: 100 nM
[1]
  Percent Inhib. of PAF-induced Bronchoconstriction, 1 mg/Kg i.v.: 20 ± 8%
  Percent Inhib. of PAF-induced Bronchoconstriction, 50 mg/Kg p.o.: 82 ± 5%
